Reference: publication PMC7023430, “4-Aminobenzoic Acid Derivatives: Converting Folate Precursor to Antimicrobial and Cytotoxic Agents” (Biomolecules, 2019)
Values after ≈ are worked out from the molar mass of the structure shown. Read-outs that look alike come from different tables or passages of the source.

Columns and labels:
[1] = system: Staphylococcus epidermidis H 6966/08; test: Antibacterial microdilution broth method, S. epidermidis; format: cell-based; conditions: Staphylococcus epidermidis, H6966/08, S. epidermidis
Candida krusei E28 = test: Antifungal microdilution broth method, C. krusei; format: cell-based; conditions: Pichia kudriavzevii
Procedure: (§1) The antifungal properties were evaluated against five yeast strains, namely: Candida albicans ATCC 44859, Candida tropicalis 156, Candida krusei […], Candida glabrata 20/I, Trichosporon […] 1188 and three strains of filamentous fungi: Aspergillus fumigatus 231, Lichtheimia corymbifera 272, and Trichophyton interdigitale 445. A microdilution broth method was performed according to EUCAST II, III instructions with slight modifications. Briefly, tested compounds were dissolved in DMSO and diluted in a twofold manner with RPMI-1640 medium with L-glutamine, supplemented with 2% glucose (w/v) and buffered to pH 7.0 with 3 morpholinopropane-1-sulfonic acid (all components were purchased from Sigma-Aldrich, USA). […] Positive controls consisted of test microbe solely, while negative controls consisted of medium and DMSO. Internal quality control was included too. Visual inspection was used for MIC endpoints evaluation. The experiments were conducted in duplicates. For the results to be valid, the difference in MIC determined from two parallel measurements must not be greater than one step on the dilution scale. PABA and triazole antimycotic drug fluconazole were involved as the reference compounds.

phytopathogenic fungi = system: phytopathogenic fungi; parameters: method as in PMID 29283262; conditions: read-out: IC50 of PABA, phytopathogenic fungi; cited from earlier work
Trichosporon asahii 1188 = test: Antifungal microdilution broth method, T. asahii; format: cell-based
Procedure: as §1

[2] = system: Klebsiella pneumoniae D 11750/08
[3] = system: Pseudomonas aeruginosa ATCC 27853, CCM 3955; test: Antibacterial microdilution broth method, P. aeruginosa; format: cell-based; conditions: Pseudomonas aeruginosa, P. aeruginosa
eight fungal strains = test: Antifungal activity; format: cell-based; conditions: statement over the fungal panel; time not stated
Procedure: as §1

[4] = system: Lichtheimia corymbifera 272; test: Antifungal microdilution broth method, L. corymbifera; format: cell-based
Procedure: as §1

[5] = system: four Gram-positive and four Gram-negative strains; test: Antibacterial activity; format: cell-based; conditions: statement over the bacterial panel; time not stated; read-out: MIC, antibacterial activity
[6] = system: E. coli, Listeria monocytogenes and Salmonella enteritidis; parameters: method as in PMID 7730199; conditions: strains distinct from this study; cited from earlier work
[7] = system: Mycobacterium avium 330/88; test: Antimycobacterial micromethod in Šula's medium, M. avium; format: cell-based
[8] = system: Staphylococcus aureus ATCC 29213, CCM 4223; test: Antibacterial microdilution broth method, S. aureus; format: cell-based
Candida tropicalis 156 = test: Antifungal microdilution broth method, C. tropicalis; format: cell-based
Procedure: as §1

[9] = system: ESBL-positive Klebsiella pneumoniae J 14368/08
[10] = system: Mycobacterium kansasii 235/80; test: Antimycobacterial micromethod in Šula's medium, M. kansasii 235/80; format: cell-based
[11] = system: Aspergillus fumigatus 231; test: Antifungal microdilution broth method, A. fumigatus; format: cell-based
Procedure: as §1

[12] = system: Candida albicans ATCC 44859; test: Antifungal microdilution broth method, C. albicans; format: cell-based
Procedure: as §1

[13] = system: Mycobacterium tuberculosis H37Rv (331/88); test: Antimycobacterial micromethod in Šula's medium, M. tuberculosis; format: cell-based
[14] = system: Trichophyton interdigitale 445; test: Antifungal microdilution broth method, T. interdigitale; format: cell-based
Procedure: as §1

[15] = system: methicillin-resistant Staphylococcus aureus ATCC 43300, CCM 4750 (MRSA); test: Antibacterial microdilution broth method, MRSA; format: cell-based; conditions: Staphylococcus aureus
Candida glabrata 20/I = test: Antifungal microdilution broth method, C. glabrata; format: cell-based; conditions: Nakaseomyces glabratus
Procedure: as §1

[16] = system: M. kansasii 6509/96 (clinical isolate); test: Antimycobacterial micromethod in Šula's medium, M. kansasii 6509/96; format: cell-based; conditions: Mycobacterium kansasii
[17] = system: Enterococcus faecalis ATCC 29212, CCM 4224; test: Antibacterial microdilution broth method, E. faecalis; format: cell-based; conditions: Enterococcus faecalis
[18] = system: Escherichia coli ATCC 25922, CCM 3954; test: Antibacterial microdilution broth method, E. coli; format: cell-based; conditions: Escherichia coli

SMILES: Nc1ccc(C(=O)O)cc1 [PABA 1, 4-aminobenzoic acid]
- MIC ([1]; 24 h incubation, read-out: MIC SE 24 h): > 500 µM
- MIC ([1]; 48 h incubation, read-out: MIC SE 48 h): > 500 µM
- MIC (Candida krusei E28; 24 h, read-out: MIC CK 24 h): > 500 µM
- MIC (Candida krusei E28; 48 h, read-out: MIC CK 48 h): > 500 µM
- IC50 (phytopathogenic fungi): 1000 to 3000 µM
- MIC (Trichosporon asahii 1188; 24 h, read-out: MIC TA 24 h): > 500 µM
- MIC (Trichosporon asahii 1188; 48 h, read-out: MIC TA 48 h): > 500 µM
- MIC KP 24 h ([2]; 24 h): >500 µM
- MIC KP 48 h ([2]; 48 h): >500 µM
- MIC ([3]; 24 h incubation, read-out: MIC PA 24 h): > 500 µM
- MIC ([3]; 48 h incubation, read-out: MIC PA 48 h): > 500 µM
- MIC (eight fungal strains): > 500 µM
- MIC ([4]; 24 h, read-out: MIC LC 24 h): > 500 µM
- MIC ([4]; 48 h, read-out: MIC LC 48 h): > 500 µM
- MIC [5]: > 500 µM
- MIC of PABA [6]: 9000 to 24000 µM
- MIC ([7]; 330/88, 336 h, 14 days incubation at 37 °C, read-out: MIC M. avium 330/88 14 d): > 1000 µM
- MIC ([7]; 330/88, 504 h, 21 days incubation at 37 °C, read-out: MIC M. avium 330/88 21 d): > 1000 µM
- MIC ([8]; 24 h incubation, read-out: MIC SA 24 h): > 500 µM
- MIC ([8]; 48 h incubation, read-out: MIC SA 48 h): > 500 µM
- MIC (Candida tropicalis 156; 24 h, read-out: MIC CT 24 h): > 500 µM
- MIC (Candida tropicalis 156; 48 h, read-out: MIC CT 48 h): > 500 µM
- MIC KP-E 24 h ([9]; 24 h): >500 µM
- MIC KP-E 48 h ([9]; 48 h): >500 µM
- MIC ([10]; 235/80, 168 h, 7 days incubation at 37 °C, read-out: MIC M. kansasii 235/80 7 d): 1000 µM (≈ 137 µg/mL)
- MIC ([10]; 235/80, 336 h, 14 days incubation at 37 °C, read-out: MIC M. kansasii 235/80 14 d): > 1000 µM
- MIC ([10]; 235/80, 504 h, 21 days incubation at 37 °C, read-out: MIC M. kansasii 235/80 21 d): > 1000 µM
- MIC ([11]; 24 h, read-out: MIC AF 24 h): > 500 µM
- MIC ([11]; 48 h, read-out: MIC AF 48 h): > 500 µM
- MIC ([12]; ATCC44859, 24 h, read-out: MIC CA 24 h): > 500 µM
- MIC ([12]; ATCC44859, 48 h, read-out: MIC CA 48 h): > 500 µM
- MIC ([13]; 336 h, 14 days incubation at 37 °C, read-out: MIC Mtb. 331/88 14 d): > 1000 µM
- MIC ([13]; 504 h, 21 days incubation at 37 °C, read-out: MIC Mtb. 331/88 21 d): > 1000 µM
- MIC ([14]; 72 h, read-out: MIC TI 72 h): > 500 µM
- MIC ([14]; 120 h, read-out: MIC TI 120 h): > 500 µM
- MIC ([15]; 24 h incubation, read-out: MIC MRSA 24 h): > 500 µM
- MIC ([15]; 48 h incubation, read-out: MIC MRSA 48 h): > 500 µM
- MIC (Candida glabrata 20/I; 24 h, read-out: MIC CG 24 h): > 500 µM
- MIC (Candida glabrata 20/I; 48 h, read-out: MIC CG 48 h): > 500 µM
- MIC ([16]; 168 h, 7 days incubation at 37 °C, read-out: MIC M. kansasii 6509/96 7 d): 1000 µM (≈ 137 µg/mL)
- MIC ([16]; 336 h, 14 days incubation at 37 °C, read-out: MIC M. kansasii 6509/96 14 d): 1000 µM (≈ 137 µg/mL)
- MIC ([16]; 504 h, 21 days incubation at 37 °C, read-out: MIC M. kansasii 6509/96 21 d): 1000 µM (≈ 137 µg/mL)
- MIC ([17]; 24 h incubation, read-out: MIC EF 24 h): > 500 µM
- MIC ([17]; 48 h incubation, read-out: MIC EF 48 h): > 500 µM
- MIC ([18]; 24 h incubation, read-out: MIC EC 24 h): > 500 µM
- MIC ([18]; 48 h incubation, read-out: MIC EC 48 h): > 500 µM
